From patent US9879041B2, “Saccharide dendritic cluster compounds as inhibitors of BACE-1” (Victoria Link Limited, priority 2012, dated 2018)

How the values were obtained:
[1] = test system: Aβ1-40; assay: Brain slice assay, soluble Aβ1-40 in medium by ELISA; type: cell-based, Transgenic TG2576 mice; settings: TG2576 mouse brain slices; 1, 10 and 100 μg/ml; 96 hours vs. 48 hours
Procedure: Transgenic TG2576 mice expressing the human SWE-mutated amyloid precursor protein are sacrificed by cervical dislocation at 8-10 months of age. The brain is removed and 400 μm coronal sections are obtained using a manual tissue chopper (Leica Microsystems). Slices are washed briefly in HBSS (Hank balanced salt solution, Life Technologies) supplemented with 4.5 mg/ml glucose (Sigma-Aldrich) and 3.75 μg/ml amphotericin B (Sigma-Aldrich) and transferred to a transwell plate (Costar 3396 HTS 24 well transwell plate with 0.4 μm polycarbonate membrane) in 1 ml of 50% MEM (minimal essential medium, Life Technologies) supplemented with 25% heat-inactivated horse serum (Life Technologies), 25% HBSS, 0.5 mM glutamine (Life Technologies), 4.5 mg/ml glucose and 3.75 μg/ml amphotericin B. Slices are incubated 48 hours at 37 C, 5% CO2. […] Soluble Aμ1-40 in the medium is quantified using a SensoLyte™ Anti-Human βeta-Amyloid (1-40) ELISA kit (Anaspec) in accordance with the manufacturer's instructions. […] The color reaction is stopped with 50 μl of Stop Solution and the plate is read at 450 nm using an absorbance plate reader (Thermo Multiskan EX). The amount of Aβ-40 is quantified by reference to a standard curve of Aβ1-40 (supplied in the SensoLyte™ kit). Data are expressed as a percentage of the Aβ1-40 present at 96 hours vs. 48 hours for each condition.

[2] = target: T1, bovine Factor Xa (Bos taurus, UniProt P00743); assay: Factor Xa anticoagulant assay (antithrombin-III mediated inactivation of Factor Xa); type: biochemical; settings: dose range 0.004 to 50 μg/ml
T1 construct: purchased Thermo Scientific 32521
T1 sequence (P01008 33-464 partner): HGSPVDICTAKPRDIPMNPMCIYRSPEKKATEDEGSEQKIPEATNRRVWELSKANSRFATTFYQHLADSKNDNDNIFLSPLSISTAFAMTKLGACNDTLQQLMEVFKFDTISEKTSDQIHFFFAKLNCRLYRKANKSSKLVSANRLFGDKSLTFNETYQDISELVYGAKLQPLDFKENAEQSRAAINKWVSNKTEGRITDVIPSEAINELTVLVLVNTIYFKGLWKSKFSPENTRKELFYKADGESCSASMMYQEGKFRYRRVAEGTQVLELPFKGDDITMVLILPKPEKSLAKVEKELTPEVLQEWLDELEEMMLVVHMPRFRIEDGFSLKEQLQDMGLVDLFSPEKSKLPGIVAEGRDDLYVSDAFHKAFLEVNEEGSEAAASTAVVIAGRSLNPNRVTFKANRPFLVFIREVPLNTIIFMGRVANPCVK
T1 sequence (P00743 234-492 limits assumed): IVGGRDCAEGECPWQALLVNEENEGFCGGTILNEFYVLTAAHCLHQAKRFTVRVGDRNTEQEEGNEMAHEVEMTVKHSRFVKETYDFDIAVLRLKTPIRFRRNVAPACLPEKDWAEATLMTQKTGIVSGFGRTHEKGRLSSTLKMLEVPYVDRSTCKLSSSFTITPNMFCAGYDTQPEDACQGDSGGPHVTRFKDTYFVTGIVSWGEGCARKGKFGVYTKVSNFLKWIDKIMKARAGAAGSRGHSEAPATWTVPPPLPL
Procedure: The plate is incubated for two minutes at 37° C. […] 19 μl of 2.5 mM chromogenic substrate (American Diagnostica Inc. Spectrozyme FXa Product No 222L) in assay buffer is added to each well and incubated for 2 hours at 37° C., followed by addition of 5 μl of 30% acetic acid to each well. Absorbance at 405 nm is read on a multiplate reader.

[3] = target: T2, recombinant human BACE-1 (Homo sapiens, UniProt P56817); assay: BACE-1 inhibition by in vitro FRET peptide cleavage assay; type: biochemical; settings: pH 4.5, 1 h, 25° C.
T2 construct: purchased R & D Systems 931-AS
T2 sequence (P56817 46-501): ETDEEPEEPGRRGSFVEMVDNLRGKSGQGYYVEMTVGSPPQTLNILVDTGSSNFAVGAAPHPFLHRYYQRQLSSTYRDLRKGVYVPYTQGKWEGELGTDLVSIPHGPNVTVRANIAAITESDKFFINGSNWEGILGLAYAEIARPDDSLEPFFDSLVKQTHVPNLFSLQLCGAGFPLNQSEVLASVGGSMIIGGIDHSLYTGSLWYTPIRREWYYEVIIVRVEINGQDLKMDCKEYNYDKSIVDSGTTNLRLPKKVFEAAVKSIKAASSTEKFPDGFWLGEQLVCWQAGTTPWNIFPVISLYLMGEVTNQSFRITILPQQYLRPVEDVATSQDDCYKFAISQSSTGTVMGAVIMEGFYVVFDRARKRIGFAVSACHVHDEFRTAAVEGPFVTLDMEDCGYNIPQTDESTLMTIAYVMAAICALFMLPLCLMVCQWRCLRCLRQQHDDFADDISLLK
Procedure: The ability of compounds of the invention to inhibit BACE-1 cleavage of APP is assessed using a fluorescent resonance energy transfer (FRET) peptide cleavage assay employing the FRET peptide HiLyte 488-Glu-Val-Asn-Leu-Asp-Ala-Glu-Phe-Lys(QXL520)-OH (Anaspec, Inc., CA, USA; Cat no. 60604-01). When intact, the amino terminal fluorophore is quenched, but upon enzymatic cleavage the fluorophore is released from quencher and fluoresces (520 nm). Assays are performed in triplicate in 96 well black plates (20 mM sodium acetate, 0.1% Triton-X-100, pH 4.5; 2.2 ng peptide per well and 25 ng/well of recombinant human BACE-1 (R & D Systems Cat no. 931-AS). The appropriate controls for enzyme activity (substrate plus enzyme, and substrate only) are employed and plates are incubated (1 h, 25° C., with activity stopped with 2.5 M sodium acetate). Compounds of the invention are added in the concentration range from 100-0.0001 μg/mL. Fluorescence 480ex/520em is measured on a Polarstar plate reader (BMG LabTechnologies, UK) and data are analysed by plotting log10 concentration of compound against percent inhibition and fitting a logistic dose response sigmoidal curve using OriginPro 8 (OriginLabs, Mass, USA).

Row | SMILES | ability to lower amounts of Aβ1-40 in brain slices [1] | ability to accelerate antithrombin-III mediated inactivation of Factor Xa, as measured by cleavage of a peptide substrate [2] | IC50 [3] [nM]
1 | CC(=O)NC1C(OC2C(C(=O)O)OC(OCCCCCCNC(=O)CCCCCCCNC(=O)CCOCC(COCCC(=O)NCCCCCCCC(=O)NCCCCCCOC3OC(C(=O)O)C(OC4OC(COS(=O)(=O)O)C(O)C(O)C4NC(C)=O)C(O)C3O)(COCCC(=O)NCCCCCCCC(=O)NCCCCCCOC3OC(C(=O)O)C(OC4OC(COS(=O)(=O)O)C(O)C(O)C4NC(C)=O)C(O)C3O)COCCC(=O)NCCCCCCCC(=O)NCCCCCCOC3OC(C(=O)O)C(OC4OC(COS(=O)(=O)O)C(O)C(O)C4NC(C)=O)C(O)C3O)C(O)C2O)OC(COS(=O)(=O)O)C(O)C1O (stereo not shown) [Compound 18a] | demonstrate the ability to lower amounts of Aβ1-40 | – | –
2 | CC(=O)NC1C(OC2C(C(=O)O)OC(OCCCCCCNC(=O)CCCCCCCNC(=O)CCOCC(COCCC(=O)NCCCCCCCC(=O)NCCCCCCOC3OC(C(=O)O)C(OC4OC(COS(=O)(=O)O)C(O)C(O)C4NC(C)=O)C(O)C3OS(=O)(=O)O)(COCCC(=O)NCCCCCCCC(=O)NCCCCCCOC3OC(C(=O)O)C(OC4OC(COS(=O)(=O)O)C(O)C(O)C4NC(C)=O)C(O)C3OS(=O)(=O)O)COCCC(=O)NCCCCCCCC(=O)NCCCCCCOC3OC(C(=O)O)C(OC4OC(COS(=O)(=O)O)C(O)C(O)C4NC(C)=O)C(O)C3OS(=O)(=O)O)C(OS(=O)(=O)O)C2O)OC(COS(=O)(=O)O)C(O)C1O (stereo not shown) [Compound 20b] | – | do not display any measurable ability | ~56.4
3 | CC(=O)NC1C(OCCCCCCNC(=O)CCCCCCCNC(=O)CCOCC(COCCC(=O)NCCCCCCCC(=O)NCCCCCCOC2OC(COS(=O)(=O)O)C(O)C(O)C2NC(C)=O)(COCCC(=O)NCCCCCCCC(=O)NCCCCCCOC2OC(COS(=O)(=O)O)C(O)C(O)C2NC(C)=O)COCCC(=O)NCCCCCCCC(=O)NCCCCCCOC2OC(COS(=O)(=O)O)C(O)C(O)C2NC(C)=O)OC(COS(=O)(=O)O)C(O)C1O (stereo not shown) [Compound 18h] | – | do not display any measurable ability | 794 to 1980
4 | CC(=O)NC1C(OC2C(C(=O)O)OC(OCCCCCCNC(=O)CCCCCCCNC(=O)CCOCC(COCCC(=O)NCCCCCCCC(=O)NCCCCCCOC3OC(C(=O)O)C(OC4OC(COS(=O)(=O)O)C(O)C(O)C4NC(C)=O)C(O)C3O)(COCCC(=O)NCCCCCCCC(=O)NCCCCCCOC3OC(C(=O)O)C(OC4OC(COS(=O)(=O)O)C(O)C(O)C4NC(C)=O)C(O)C3O)COCCC(=O)NCCCCCCCC(=O)NCCCCCCOC3OC(C(=O)O)C(OC4OC(COS(=O)(=O)O)C(O)C(O)C4NC(C)=O)C(O)C3O)C(O)C2O)OC(COS(=O)(=O)O)C(O)C1O (stereo not shown) [Compound 18b] | – | do not display any measurable ability | ~3100
5 | CC(=O)NC1C(OC2C(C(=O)O)OC(OC3C(COS(=O)(=O)O)OC(OC4C(C(=O)O)OC(OCCCCCCNC(=O)CCCCCCCNC(=O)CCOCC(COCCC(=O)NCCCCCCCC(=O)NCCCCCCOC5OC(C(=O)O)C(OC6OC(COS(=O)(=O)O)C(OC7OC(C(=O)O)C(OC8OC(COS(=O)(=O)O)C(O)C(O)C8NC(C)=O)C(O)C7O)C(O)C6NC(C)=O)C(O)C5O)(COCCC(=O)NCCCCCCCC(=O)NCCCCCCOC5OC(C(=O)O)C(OC6OC(COS(=O)(=O)O)C(OC7OC(C(=O)O)C(OC8OC(COS(=O)(=O)O)C(O)C(O)C8NC(C)=O)C(O)C7O)C(O)C6NC(C)=O)C(O)C5O)COCCC(=O)NCCCCCCCC(=O)NCCCCCCOC5OC(C(=O)O)C(OC6OC(COS(=O)(=O)O)C(OC7OC(C(=O)O)C(OC8OC(COS(=O)(=O)O)C(O)C(O)C8NC(C)=O)C(O)C7O)C(O)C6NC(C)=O)C(O)C5O)C(O)C4O)C(NC(C)=O)C3O)C(O)C2O)OC(COS(=O)(=O)O)C(O)C1O (stereo not shown) [Compound 18c] | – | do not display any measurable ability | ~39.5
6 | CC(=O)NC1C(OCCCCCCNC(=O)CCOCC(COCCC(=O)NCCCCCCOC2OC(COS(=O)(=O)O)C(O)C(O)C2NC(C)=O)(COCCC(=O)NCCCCCCOC2OC(COS(=O)(=O)O)C(O)C(O)C2NC(C)=O)COCCC(=O)NCCCCCCOC2OC(COS(=O)(=O)O)C(O)C(O)C2NC(C)=O)OC(COS(=O)(=O)O)C(O)C1O (stereo not shown) [Compound 18e] | – | do not display any measurable ability | ~25600
7 | CC(=O)NC1C(OC2C(C(=O)O)OC(OC3C(COS(=O)(=O)O)OC(OC4C(C(=O)O)OC(OCCCCCCNC(=O)CCCCCCCNC(=O)CCOCC(COCCC(=O)NCCCCCCCC(=O)NCCCCCCOC5OC(C(=O)O)C(OC6OC(COS(=O)(=O)O)C(OC7OC(C(=O)O)C(OC8OC(COS(=O)(=O)O)C(O)C(O)C8NC(C)=O)C(O)C7OS(=O)(=O)O)C(O)C6NC(C)=O)C(O)C5OS(=O)(=O)O)(COCCC(=O)NCCCCCCCC(=O)NCCCCCCOC5OC(C(=O)O)C(OC6OC(COS(=O)(=O)O)C(OC7OC(C(=O)O)C(OC8OC(COS(=O)(=O)O)C(O)C(O)C8NC(C)=O)C(O)C7OS(=O)(=O)O)C(O)C6NC(C)=O)C(O)C5OS(=O)(=O)O)COCCC(=O)NCCCCCCCC(=O)NCCCCCCOC5OC(C(=O)O)C(OC6OC(COS(=O)(=O)O)C(OC7OC(C(=O)O)C(OC8OC(COS(=O)(=O)O)C(O)C(O)C8NC(C)=O)C(O)C7OS(=O)(=O)O)C(O)C6NC(C)=O)C(O)C5OS(=O)(=O)O)C(OS(=O)(=O)O)C4O)C(NC(C)=O)C3O)C(OS(=O)(=O)O)C2O)OC(COS(=O)(=O)O)C(O)C1O (stereo not shown) [Compound 20c] | – | do not display any measurable ability | ~1.75
8 | O=C(CCCCCCCNC(=O)CCOCC(COCCC(=O)NCCCCCCCC(=O)NCCCCCCOC1OC(C(=O)O)C(OC2OC(COS(=O)(=O)O)C(OC3OC(C(=O)O)C(OC4OC(COS(=O)(=O)O)C(O)C(O)C4NS(=O)(=O)O)C(O)C3OS(=O)(=O)O)C(O)C2NS(=O)(=O)O)C(O)C1OS(=O)(=O)O)(COCCC(=O)NCCCCCCCC(=O)NCCCCCCOC1OC(C(=O)O)C(OC2OC(COS(=O)(=O)O)C(OC3OC(C(=O)O)C(OC4OC(COS(=O)(=O)O)C(O)C(O)C4NS(=O)(=O)O)C(O)C3OS(=O)(=O)O)C(O)C2NS(=O)(=O)O)C(O)C1OS(=O)(=O)O)COCCC(=O)NCCCCCCCC(=O)NCCCCCCOC1OC(C(=O)O)C(OC2OC(COS(=O)(=O)O)C(OC3OC(C(=O)O)C(OC4OC(COS(=O)(=O)O)C(O)C(O)C4NS(=O)(=O)O)C(O)C3OS(=O)(=O)O)C(O)C2NS(=O)(=O)O)C(O)C1OS(=O)(=O)O)NCCCCCCOC1OC(C(=O)O)C(OC2OC(COS(=O)(=O)O)C(OC3OC(C(=O)O)C(OC4OC(COS(=O)(=O)O)C(O)C(O)C4NS(=O)(=O)O)C(O)C3OS(=O)(=O)O)C(O)C2NS(=O)(=O)O)C(O)C1OS(=O)(=O)O (stereo not shown) [Compound 22a] | – | do not display any measurable ability | ~1.67
9 | CC(=O)NC1C(OC2C(C(=O)O)OC(OCCCCCCNC(=O)CCCCCCCNC(=O)CCOCC(COCCC(=O)NCCCCCCCC(=O)NCCCCCCOC3OC(C(=O)O)C(OC4OC(COS(=O)(=O)O)C(O)C(O)C4NC(C)=O)C(O)C3OS(=O)(=O)O)(COCCC(=O)NCCCCCCCC(=O)NCCCCCCOC3OC(C(=O)O)C(OC4OC(COS(=O)(=O)O)C(O)C(O)C4NC(C)=O)C(O)C3OS(=O)(=O)O)COCCC(=O)NCCCCCCCC(=O)NCCCCCCOC3OC(C(=O)O)C(OC4OC(COS(=O)(=O)O)C(O)C(O)C4NC(C)=O)C(O)C3OS(=O)(=O)O)C(OS(=O)(=O)O)C2O)OC(COS(=O)(=O)O)C(O)C1O (stereo not shown) [Compound 20a] | – | – | ~14.1
